Data on three compounds can be found in PMC4126848 (Epilepsia, 2014).

Values joined by “and” are separate entries in the source; they are usually repeats but may differ in a detail not shown here. Equal values may be shown once. Read-outs that look alike come from different tables or passages of the source.

Series [1] in a line: Plasma and brain concentrations and pharmacokinetics in mice. The following applies: for concentration at 30 min: male, Scn2a^Q54, mouse, intraperitoneal, 40 mg/kg.
The conditions of series [2]: mouse, in vivo.
The subject of series [3] is Scn2a^Q54 mice. The experiment in a line: Anticonvulsant activity: behavioral seizure frequency in Scn2a^Q54 mice. The class given is in vivo, mouse. The following applies: for reduction in seizure frequency: Scn2a^Q54 mice.
The subject of series [4] is Scn2a^Q54 mice. The experiment in a line: Cresyl Violet staining for hilar neuron loss in the dentate gyrus. The class given is in vivo, mouse. The following applies: GS967 1.5 mg/kg/d from P21-P60; female mice.
In series [5] the test system is hippocampal pyramidal neurons isolated from Scn2a^Q54 mice. Format: cell-based, mouse. The settings on record: 1 µM.
The test system of a further series is C57BL/6J male mice. Put plainly: Maximal electroshock-induced seizures. The class given is in vivo, mouse. The settings on record: oral gavage two hours prior to testing; probit analysis. On the technique in general: Protection in the maximal electroshock model is a classic sign of anticonvulsant action.
The subject of series [6] is hippocampal pyramidal neurons isolated from Scn2a^Q54 mice. The class given is cell-based, mouse. The settings on record: 1 µM; membrane potential clamped to −80 mV.
Series [7] has as its system cardiac ion channels and several other molecular targets (more than 600 studied targets). The following applies: 1 µM; cited from earlier work.
The test system of series [8] is Scn2a^Q54 mice. Put plainly: Tolerability observations in mice. The settings on record: phenytoin 30 mg/kg i.p.; GS967 in chow. Format: in vivo, mouse.
Series [9] relates to Scn2a^Q54 mice. Put plainly: Survival analysis of Scn2a^Q54 mice. The class given is in vivo, mouse. The following applies: GS967 chow 1.5 mg/kg/d from postnatal day 21; control 20%.

For orientation: half-life means the time in which the quantity being followed falls by half. Read a high half-life as slow loss.

Consider `COc1ccccc1OCC(O)CN1CCN(CC(=O)Nc2c(C)cccc2C)CC1` (stereo not drawn) [Ranolazine, reference compound], for which the concentration at 30 min in series [1] (plasma) amounted to 19.3 ± 0.8 µM; in [1] (whole brain), 4.9 ± 0.1 µM. The compound also registered a half-life in series [1] (mouse, plasma) of roughly 15 min. In addition, in series [2], the brain penetration entry is given as “low brain penetration”. Also, the “reduction in seizure frequency” value with Scn2a^Q54 mice [3] (ranolazine 40 mg/kg i.p.) is ~ 50% and 48%.

`FC(F)(F)Oc1ccc(-c2ccc3nnc(C(F)(F)F)n3c2)cc1` [GS967]: the “[Plasma]” value in [1] (GS967 1.5 mg/kg/day orally in chow, immediately after post-treatment period) turned out to be 0.6 ± 0.1 µM. Besides, in series [1] (mice), the brain penetration entry is listed as “effectively cross the blood-brain barrier”. Further, the rate of elimination entry in [1] (mouse, in vivo) is “slower rate of elimination than ranolazine”. Also, the “hilar neuron loss (Cresyl Violet, qualitative)” value in the series with Scn2a^Q54 mice [4] is listed as “no overt hilar neuron loss”. The “persistent current as % of peak current amplitude” value in series [5] (control 1.2 ± 0.4%) turned out to be 0.1 ± 0.1%. In addition, in [5] (not significantly different from control), the peak current density is recorded as 172.3 ± 46.2 pA/pF. In the series on C57BL/6J male mice, the “ED50 for protection against MES-induced tonic hindlimb extension” value is reported as 0.1 mg/kg. In series [6], the “reduction of spontaneous action potential firing frequency” value is 98.8 ± 0.1%. Besides, in series [7], the “cross reactivity with cardiac ion channels and other molecular targets” value is reported as “no cross reactivity”. The “reduction in seizure frequency” value in the series on Scn2a^Q54 mice [3] (GS967 0.375 mg/kg/d orally in chow) is listed as 50%; in the series on Scn2a^Q54 mice [3] (GS967 1.5 mg/kg/d orally in chow, two days of treatment) it was “greater than 90%”. In addition, the “% Change in Seizure Frequency” value in the series on Scn2a^Q54 mice [3] (GS967 1.5 mg/kg/day orally in chow, male Scn2a^Q54 mice) was −92 ± 4%. Further, in the series on Scn2a^Q54 mice [8], the sedation result is recorded as “no sedation was observed”. Moreover, in the series on Scn2a^Q54 mice [9], the “mice alive at 12 weeks” value is reported as 90%.

Take `O=C1NC(=O)C(c2ccccc2)(c2ccccc2)N1` [Phenytoin, reference compound]: the “reduction of spontaneous action potential firing frequency” value in series [6] was found to be 36.7 ± 10.1%. The sedation entry in the series on Scn2a^Q54 mice [8] is reported as “exhibited sedation characterized by lack of ambulation”.
